Assay results: patent publication US12043602B2, “Fendiline derivatives” (The Board of Regents of the University of Texas System, priority 2019, dated 2024)
“Also recorded” adds a separate entry of the source. Like-named read-outs stand apart in the source and are kept apart here. Blank lines part the entries; values can stand above or below the molecule they belong to.

Experiments:
[1] = tested on: BxPC-3 (WT) pancreatic tumor cells; experiment: CyQUANT proliferation assay; assay type: cell-based; conditions: Homo sapiens
Experimental: (§1) Madine Darby Canine Kidney epithelial cells (MDCK) stably co-expressing mGFP-tagged full length oncogenic mutant K-Ras (GFP—K-RASG12V) or mGFP-LactC2 (peptide probe for phosphatidylserine) and mCherry-tagged to the amino acids 179-189 of H-RasC181S, C184S (mCherry-CAAX, localizes primarily to endomembranes) were grown in DMEM-high glucose/sodium pyruvate/10% FBS. The medium was supplemented with 1× Penicillin/Streptomycin for fluorescence microscopy assays, to avoid any microbial contamination from the test compounds added. KLE and Hec50 cells were maintained in DMEM-F-12 medium supplemented with 10% FBS. Hec-1A and Hec-1B cells were grown in McCoy's 5a medium supplemented with 10% FBS. ESS-1 cells were grown in RPMI 1640 medium supplemented with 20% FBS. MPanc96 cells were grown in DMEM supplemented with 10% FBS, MiaPaCa-2 cells in DMEM supplemented with 10% FBS and 2.5% horse serum and all other cell lines were grown in RPMI 1640 supplemented with 10% FBS. All cancer cell media were supplemented with ×Penicillin/Streptomycin. All cell lines were grown at 37° C. with 5% CO2.
(§2) Cells were seeded in 96-well plates. After 24 h, fresh growth medium supplemented with 0.1% vehicle (DMSO), or various concentrations of drugs was added and cells were grown for 72 h. Cell numbers were quantified using the CyQUANT® Cell Proliferation Assay Kit (Molecular Probes, Life Technologies), according to the manufacturer's protocol. Fluorescence measurement was used as a measure of live cell number.

[2] = tested on: NCI H1975 (WT) lung tumor cells; experiment: CyQUANT proliferation assay; assay type: cell-based; design: key to IC50 proliferation NCI H1975 (WT): NE—Not efficacious; conditions: for IC50 proliferation NCI H1975 (WT): 72 h; for IC50: Homo sapiens, NCI-H1975, Table 11, lung
Experimental: as §1, §2

[3] = tested on: NCI H522 (WT) lung tumor cells; experiment: CyQUANT proliferation assay; assay type: cell-based; conditions: Homo sapiens
Experimental: as §1, §2

[4] = tested on: ESS-1 (WT) endometrial tumor cells; experiment: CyQUANT proliferation assay; assay type: cell-based; design: key: NE—Not efficacious; conditions: 72 h
Experimental: as §1, §2

[5] = tested on: KLE (WT) endometrial tumor cells; experiment: CyQUANT proliferation assay; assay type: cell-based; design: key: NE—Not efficacious; conditions: 72 h
Experimental: as §1, §2

[6] = tested on: Ishikawa (WT) endometrial tumor cells; experiment: CyQUANT proliferation assay; assay type: cell-based; design: key to IC50 proliferation Ishikawa (WT): NE—Not efficacious; conditions: for IC50: Homo sapiens, Ishikawa
Experimental: as §1, §2

[7] = tested on: sphingomyelin (SM) in MiaPaCa-2 tumor sections; experiment: Lysenin (GFP-Lys) staining of tumor sections; assay type: in vivo, nu/nu mice; conditions: 12.5 mg/kg
Experimental: Lysenin Staining of Tumor Sections. To label intracellular SM, 3 μm thick cryosections, fixed in 4% paraformaldehyde and quenched in 0.1 M NH4Cl, were permeabilized with 0.5% saponin before overnight incubation (4° C.) with MBP-GFP Lysenin (50 μg/mL) in PBS with 0.5% saponin containing DAPI (5 ng/mL). Samples mounted in FluorSave were photographed in the Nikon AIR Confocal Laser Microscope. GFP-Lysenin binding was quantitated using NIS
Elements BR analysis ver. 4.13.04. The average value obtained in the negative control pictures (background) was subtracted from each of the GFP pictures (n=20).
To determine if the reduction in tumor growth elicited by the compounds were mediated by inhibition of ASM, we stained the tissue sections for SM using a non-toxic recombinant fragment of lysenin tagged with GFP (GFP-Lys). In DMSO-treated tumor sections, weak GFP-Lys staining was observed. […] We also observed that the blood vessels were dilated in compound 6 treated tumors, whereas the blood vessel diameters were not changed in compound 12h (NY0331) and 22 (NY0335) treated tumors (FIG. 8E).

[8] = tested on: pERK; experiment: Immunohistochemistry of tumor sections, pERK; design: species or system nu/nu mice; conditions: mouse, in vivo
Experimental: (§3) Immunohistochemistry. 4-5 μm sections were deparaffinized, rehydrated, and treated with 10 mM sodium citrate for heat induced antigen retrieval. After quenching endogenous peroxidase, and blocking with 2.5% normal goat serum (Vector Laboratories S-1012), sections were incubated overnight at 4° C. with primary antibody diluted in blocking solution as recommended by manufacturer (Cell Signaling). Controls were incubated with diluted normal rabbit IgG. After incubation with biotinylated secondary antibody diluted 1:250 in blocking serum for 45 min at rt, sections were incubated with VECTASTAIN ABC reagent for 30 min, and for development of the DAB chromogen the Quanto substrate was used. Slides were counter stained with Hematoxylin. Five fields per stained section per xenograft were photographed at 10X. CC3+ and pERK+ area and number of events per field were quantitated via automated image analysis (NIS Elements BR analysis ver. 4.13.04). Vessel number and lumen area per field used the same software with manual settings to trace vessel wall contours. Antibodies used are as follows: CC3: Cell Signaling #9661, use at 1:300. (Cleaved Caspase-3 (Asp175) Antibody. Rabbit polyclonal. pERK: Cell Signaling #4370: Phospho-p44/42 MAPK (Erk1/2) (Thr202/Tyr204) (D13.14.4E) XP Rabbit mAB. CD31 (PECAM-1) (D8V9E) XP Rabbit mAB (Cell signal # (Cell signal #77699). Normal rabbit IgG: Santa Cruz #sc-3888. Concentration is 50 μg/mL or 50 ng/μL. Prepared with 5 μg in 200 μL blocking solution. Goat Anti-Rabbit IgG Biotin Conjugate: Calbiochem #OS03B, Concentration=1.2 mg/mL. Recommended to be used for IHC at 1 μg/mL.

[9] = tested on: blood vessels in tumors; experiment: Blood vessel lumen area in tumor sections; design: species or system nu/nu mice; conditions: mouse, in vivo
Experimental: FIG. 8A-E. (A) Nu/nu mice implanted with MiaPaCa-2 tumors were treated with vehicle (DMSO) or compounds intraperitoneally and tumor sizes were measured with an external caliper every 3-4 days. (B) Tumor sections were stained with GFP-Lys. (C) Tumor sections were stained with antibodies against pERK. (D) Tumor sections were stained with cleaved caspase 3. (E) Blood vessel lumen area was also measured in tumor sections.
as §3

[10] = tested on: HPAC (Mut) pancreatic tumor cells; experiment: CyQUANT proliferation assay; assay type: cell-based; conditions: Homo sapiens, HPAC, 72 h
Experimental: as §1, §2

[11] = tested on: MDCK cells co-expressing GFP-K-RASG12V and mCherry-CAAX; experiment: Cytotoxicity in mislocalization screen (death of all cells in well); conditions: drug caused death of all cells in well at 30 μM
[12] = BXPC-3, 72 h, read-out: IC50 proliferation BxPC-3 (WT)
[13] = BXPC-3, Table 11, pancreatic, read-out: IC50 (μM) BxPC-3 (WT)
[14] = NCI-H522, 72 h, read-out: IC50 proliferation NCI H522 (WT)
[15] = NCI-H522, Table 11, lung, read-out: IC50 (μM) NCI H522 (WT)
[16] = Table 11, endometrial, read-out: IC50 (μM) Ishikawa (WT)

IC50 [1, 12]: 28.6 µM | IC50 [1, 13]: 28.6 ± 5.9 µM | IC50 proliferation ESS-1 (WT) [4]: NE | IC50 proliferation KLE (WT) [5]: NE | IC50 proliferation Ishikawa (WT) ([6]; 72 h): NE | IC50 [6, 16]: > 30 µM | blood vessel dilation / vasodilatory effect in tumors [9]: dilated
SMILES: CC(NCCC(c1ccccc1)c1ccccc1)c1ccccc1 (stereo not drawn) [Fendiline]
IC50 proliferation NCI H1975 (WT) [2]: NE | IC50 [2]: > 30 µM | IC50 [3, 14]: 29.6 µM | IC50 [3, 15]: 29.6 ± 1.2 µM | GFP-Lys staining (SM) of tumor sections [7]: significantly increased | pERK levels in tumors [8]: no significant effect

SMILES: COc1ccc([C@@H](C)N(CC=C(c2ccccc2)c2ccccc2)CCN2CCN(C)CC2)cc1 [NY0244, (R)-N-(1-(4-methoxyphenyl)ethyl)-N-(2-(4-methylpiperazin-1-yl)ethyl)-3,3-diphenylprop-2-en-1-amine]
IC50 [1, 12]: 5.73 µM | IC50 [1, 13]: 5.7 µM | IC50 [10]: 5.55 µM | IC50 proliferation NCI H1975 (WT) [2]: NE | IC50 [2]: > 30 µM | IC50 [3, 14]: 28.2 µM | IC50 [3, 15]: 28.2 µM | IC50 proliferation ESS-1 (WT) [4]: NE | IC50 proliferation KLE (WT) [5]: NE | IC50 proliferation Ishikawa (WT) ([6]; 72 h): NE | IC50 [6, 16]: > 30 µM | Cytotoxic at 30 μM [11]: Yes

SMILES: COc1ccc([C@@H](C)N(CC=C(c2ccccc2)c2ccccc2)CCN2CCCC2)cc1 [NY0331, (R)-N-(1-(4-methoxyphenyl)ethyl)-3,3-diphenyl-N-(2-(pyrrolidin-1-yl)ethyl)prop-2-en-1-amine]
IC50 [10]: 5.15 µM | GFP-Lys staining (SM) of tumor sections [7]: significantly increased | pERK levels in tumors [8]: reduced | blood vessel dilation / vasodilatory effect in tumors ([9]; listed as 12h): no vasodilatory effects; also recorded: not changed | Cytotoxic at 30 μM [11]: Yes

SMILES: COc1ccc([C@@H](C)N(CC=C(c2ccccc2)c2ccccc2)CCCN2CCN(C)CC2)cc1 [NY0335, (R)-N-(1-(4-methoxyphenyl)ethyl)-N-(3-(4-methylpiperazin-1-yl)propyl)-3,3-diphenylprop-2-en-1-amine]
IC50 [1, 12]: 5.34 µM | IC50 [1, 13]: 5.3 µM | IC50 [10]: 5.81 µM | IC50 proliferation NCI H1975 (WT) [2]: NE | IC50 [2]: > 30 µM | IC50 [3, 14]: 23.5 µM | IC50 [3, 15]: 23.5 ± 3.2 µM | IC50 proliferation ESS-1 (WT) [4]: NE | IC50 proliferation KLE (WT) [5]: NE | IC50 ([6]; 72 h, read-out: IC50 proliferation Ishikawa (WT)): 11 µM | IC50 [6, 16]: 11 µM | GFP-Lys staining (SM) of tumor sections [7]: did not enhance GFP-Lys staining | pERK levels in tumors [8]: reduced | blood vessel dilation / vasodilatory effect in tumors ([9]; listed as 22): no vasodilatory effects; also recorded: not changed | Cytotoxic at 30 μM [11]: Yes
